From US10167257B2, “Indole derivatives for use in medicine” (IOmet Pharma Ltd., priority 2014, dated 2019)

Columns and labels:
IDO (SKOV-3 cells) = biological target: T1, IDO (SKOV-3 cells) (Homo sapiens, UniProt P14902); test: IDO cell-based assay (SKOV-3, IFNγ-induced), kynurenine production; conditions: SKOV-3 ovary adenocarcinoma cells, IFNγ 500 ng/ml, 500 μM L-Trp, 48 h, kynurenine by absorbance at 490 nm
T1 construct: This assay utilised cancer cells which expressed either TDO or IDO; host or cells: SKOV-3 ovary adenocarcinoma cells, IFNγ-induced
Text: (§1) Two different types of assay were employed: 1. A TDO and IDO biochemical coupled assay which utilised recombinantly produced and purified TDO and IDO enzymes in combination with the enzyme formamidase. This coupled enzyme system allowed conversion of N-formylkynurenine produced by TDO or IDO activity to kynurenine which was then quantified by fluorescence following addition of Erhlich's Reagent. 2. A cell-based assay for detecting the effect of test compounds on kynurenine production in two different cancer cell types. This assay utilised cancer cells which expressed either TDO or IDO and as such was used as a means of testing compound activity at these two enzymes in a cell-based context. The protocols for these are set out below.
(§2) A172 human glioblastoma (ATCC) were grown in DMEM+2 mM L-glutamine medium supplemented with 10% foetal bovine serum and SKOV-3 ovary adenocarcinoma (ATCC) cells were grown in McCoys 5A+L-glutamax medium supplemented with 15% foetal bovine serum. On the day of assay, cells were detached using trypsin-EDTA (0.25% v/v), re-suspended in assay media (RPMI 1640 phenol red free+L-glutamine supplemented with 10% dialysed foetal bovine serum). A172 cells were seeded at 30K cells per well and SKOV-3 cells at 40K cells per well into 96-well plates containing test samples/vehicle control together with 500 μM L-Trp. Cells were then incubated for 48 h at 37° C., 5% CO2. In SK-OV-3 cells, IFNγ was also added at 500 ng/ml for the 48 h incubation in order to induce expression of IDO. Plates were centrifuged and the supernatant was removed and incubated for 5 min in the presence of 1% Erhlich's reagent. Kynurenine levels were then quantified by measuring absorbance at 490 nm.

TDO (A172 cells) = biological target: T2, TDO (A172 cells) (Homo sapiens, UniProt P48775); test: TDO cell-based assay (A172), kynurenine production; conditions: A172 human glioblastoma cells, 500 μM L-Trp, 48 h, kynurenine by absorbance at 490 nm
T2 construct: This assay utilised cancer cells which expressed either TDO or IDO; host or cells: A172 human glioblastoma cells
Text: as §1, §2

T1 sequence (P14902 whole entry): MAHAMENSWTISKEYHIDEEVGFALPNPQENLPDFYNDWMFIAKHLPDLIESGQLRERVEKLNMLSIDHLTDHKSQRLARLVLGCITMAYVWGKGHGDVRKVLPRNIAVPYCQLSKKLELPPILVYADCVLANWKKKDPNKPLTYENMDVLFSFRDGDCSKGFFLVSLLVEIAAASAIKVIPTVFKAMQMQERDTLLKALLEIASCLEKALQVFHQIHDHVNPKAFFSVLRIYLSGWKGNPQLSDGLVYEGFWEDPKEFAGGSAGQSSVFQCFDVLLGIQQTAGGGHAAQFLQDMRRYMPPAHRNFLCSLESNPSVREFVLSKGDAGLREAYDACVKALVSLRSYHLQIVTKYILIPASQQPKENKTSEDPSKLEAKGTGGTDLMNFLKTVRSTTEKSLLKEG
T2 sequence (P48775 whole entry): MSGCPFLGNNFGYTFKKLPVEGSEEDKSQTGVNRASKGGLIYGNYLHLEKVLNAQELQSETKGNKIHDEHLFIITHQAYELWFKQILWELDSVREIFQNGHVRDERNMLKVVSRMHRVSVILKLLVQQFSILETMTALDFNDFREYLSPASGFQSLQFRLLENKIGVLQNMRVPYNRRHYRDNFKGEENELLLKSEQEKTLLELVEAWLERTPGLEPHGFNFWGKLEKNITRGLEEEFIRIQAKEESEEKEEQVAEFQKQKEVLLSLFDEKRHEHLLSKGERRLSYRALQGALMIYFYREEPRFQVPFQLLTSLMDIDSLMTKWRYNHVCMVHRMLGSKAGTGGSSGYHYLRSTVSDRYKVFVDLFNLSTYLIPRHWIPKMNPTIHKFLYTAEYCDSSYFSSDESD

Compound	IDO cellular assay (SKOV3) pIC50 (IDO (SKOV-3 cells))	TDO cellular assay (A172) pIC50 (TDO (A172 cells))
Cn1cc(C2(NC(=O)c3cc4cc(Cl)ccc4[nH]3)COC2)cn1 [Compound 213]	+++ (+++ = pIC50 ≥5.50)	− (− = pIC50 <4.50)
C[C@@H](NC(=O)c1cc2ccc(O)cc2[nH]1)c1ccccc1 [Compound 185]	+ (+ = pIC50 4.50-<5.00)	+ (+ = pIC50 4.50-<5.00)
O=C(Nc1cccc2[nH]ncc12)c1cc2cc(F)ccc2[nH]1 [Compound 1]	++ (++ = pIC50 5.00-<5.50)	− (− = pIC50 <4.50)
Cc1nnc(C(C)NC(=O)c2cc3cc(Cl)ccc3[nH]2)o1 (stereo not drawn) [Compound 184]	++ (++ = pIC50 5.00-<5.50)	− (− = pIC50 <4.50)
CCN(Cc1noc(CC(C)C)n1)C(=O)c1cc2cc(Cl)ccc2[nH]1 [Compound 117]	++ (++ = pIC50 5.00-<5.50)	+ (+ = pIC50 4.50-<5.00)
CCc1ccc2[nH]c(C(=O)NC3(c4ccccc4)CC3)cc2c1 [Compound 242]	+++ (+++ = pIC50 ≥5.50)	− (− = pIC50 <4.50)
Cc1nc(C(C)NC(=O)c2cc3cc(C#N)ccc3[nH]2)no1 (stereo not drawn) [Compound 216]	+ (+ = pIC50 4.50-<5.00)	− (− = pIC50 <4.50)
Cc1nc(C(C)NC(=O)c2cc3cc(Cl)ccc3[nH]2)co1 (stereo not drawn) [Compound 200]	+++ (+++ = pIC50 ≥5.50)	− (− = pIC50 <4.50)
C[C@@H](NC(=O)c1cc2cc(Cl)cnc2[nH]1)c1ccccc1 [Compound 163]	+ (+ = pIC50 4.50-<5.00)	− (− = pIC50 <4.50)
Cc1cc(C(C)NC(=O)c2cc3cc(C#N)ccc3[nH]2)no1 (stereo not drawn) [Compound 235]	+++ (+++ = pIC50 ≥5.50)	− (− = pIC50 <4.50)
O=C(NC1(c2ccccc2)CC1)c1cc2c(F)c(Cl)ccc2[nH]1 [Compound 194]	+++ (+++ = pIC50 ≥5.50)	− (− = pIC50 <4.50)
CC(NC(=O)c1cc2cc(F)ccc2[nH]1)c1cccnc1 (stereo not drawn) [Compound 54]	+ (+ = pIC50 4.50-<5.00)	− (− = pIC50 <4.50)
CC(NC(=O)c1cc2cc(F)ccc2[nH]1)c1cccc(F)c1 (stereo not drawn) [Compound 22]	++ (++ = pIC50 5.00-<5.50)	+ (+ = pIC50 4.50-<5.00)
O=C(NCc1ccc(F)c(Cl)c1)c1cc2ccccc2[nH]1 [Compound 32]	++ (++ = pIC50 5.00-<5.50)	− (− = pIC50 <4.50)
CC(NC(=O)c1cc2cc(Cl)ccc2[nH]1)C1CN(S(C)(=O)=O)C1 (stereo not drawn) [Compound 152]	++ (++ = pIC50 5.00-<5.50)	− (− = pIC50 <4.50)
CC(NC(=O)c1cc2ccccc2[nH]1)c1cccc(Cl)c1 (stereo not drawn) [Compound 14]	++ (++ = pIC50 5.00-<5.50)	− (− = pIC50 <4.50)
C[C@H](c1ccccc1)N(C)C(=O)c1cc2cc(F)ccc2[nH]1 [Compound 39]	++ (++ = pIC50 5.00-<5.50)	− (− = pIC50 <4.50)
CCC(NC(=O)c1cc2cc(Cl)ccc2[nH]1)c1cnn(C)c1 (stereo not drawn) [Compound 258]	+++ (+++ = pIC50 ≥5.50)	− (− = pIC50 <4.50)
C[C@@H](NC(=O)c1cc2ccc(Cl)cc2[nH]1)c1ccccc1 [Compound 47]	++ (++ = pIC50 5.00-<5.50)	++ (++ = pIC50 5.00-<5.50)
O=S(=O)(NCc1cc2cc(F)ccc2[nH]1)c1ccccc1 [Compound 57]	− (− = pIC50 <4.50)	+ (+ = pIC50 4.50-<5.00)
CC(C)Oc1ccc2[nH]c(C(=O)NC3(c4cnn(C)c4)CC3)cc2c1 [Compound 265]	+++ (+++ = pIC50 ≥5.50)	− (− = pIC50 <4.50)
